± gives the expanded uncertainty stated by the source.

Normal boiling temperature data for three compounds are collected here from the NIST ThermoML archive (doi:10.1016/j.fluid.2008.09.010).

The conditions of the data set: Liquid; Ebulliometric method (Recirculating still).

With `CC(=O)O` [acetic acid], the Normal boiling temperature amounted to 118 ± 0.2 °C. The same measure for `C[S+](C)[O-]` [dimethyl sulfoxide]: 188.77 ± 0.2 °C; for `CN(C)C=O` [dimethylformamide]: 152.6 ± 0.2 °C.
